Experimental findings from paper PMC3977054, “Design, Synthesis and Biological Evaluation of 5-Oxo-1,4,5,6,7,8 Hexahydroquinoline Derivatives as Selective Cyclooxygenase-2 Inhibitors” (Iranian Journal of Pharmaceutical Research : IJPR, 2014) are described below.

One series addresses T1, COX-1 (Ovis aries, UniProt P05979).
T1 construct: purchased Cayman chemical, MI, USA
T1 sequence (P05979 25-600): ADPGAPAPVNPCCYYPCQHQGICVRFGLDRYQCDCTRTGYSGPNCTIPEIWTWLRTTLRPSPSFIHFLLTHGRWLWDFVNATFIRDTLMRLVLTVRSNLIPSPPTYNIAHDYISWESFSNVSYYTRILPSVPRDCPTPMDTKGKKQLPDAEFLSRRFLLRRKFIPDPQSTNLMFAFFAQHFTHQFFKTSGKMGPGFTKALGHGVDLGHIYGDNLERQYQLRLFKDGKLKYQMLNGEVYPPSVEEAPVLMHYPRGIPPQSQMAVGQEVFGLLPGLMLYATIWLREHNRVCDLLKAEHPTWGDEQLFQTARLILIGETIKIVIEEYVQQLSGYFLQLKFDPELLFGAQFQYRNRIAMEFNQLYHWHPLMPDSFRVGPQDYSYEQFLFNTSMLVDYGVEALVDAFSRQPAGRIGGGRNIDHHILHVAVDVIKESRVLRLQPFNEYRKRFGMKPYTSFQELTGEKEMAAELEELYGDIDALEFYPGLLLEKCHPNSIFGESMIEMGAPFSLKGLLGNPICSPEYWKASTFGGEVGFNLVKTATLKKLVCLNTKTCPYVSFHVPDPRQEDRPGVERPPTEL
Briefly: biochemical. The conditions noted are these: ovine COX-1/COX-2 assay kit; mean of two determinations, deviation < 10% of the mean. As for the experimental part:
(§1) In-vitro cyclooxygenase (COX) inhibition assays
(§2) The assay was performed using an enzyme chemiluminescent kit (Cayman chemical, MI, USA) according to our previously reported method ([10]).

A further series has as its target T2, COX-2 (Ovis aries, UniProt P79208).
T2 construct: purchased Cayman chemical, MI, USA
T2 sequence (P79208 17-603): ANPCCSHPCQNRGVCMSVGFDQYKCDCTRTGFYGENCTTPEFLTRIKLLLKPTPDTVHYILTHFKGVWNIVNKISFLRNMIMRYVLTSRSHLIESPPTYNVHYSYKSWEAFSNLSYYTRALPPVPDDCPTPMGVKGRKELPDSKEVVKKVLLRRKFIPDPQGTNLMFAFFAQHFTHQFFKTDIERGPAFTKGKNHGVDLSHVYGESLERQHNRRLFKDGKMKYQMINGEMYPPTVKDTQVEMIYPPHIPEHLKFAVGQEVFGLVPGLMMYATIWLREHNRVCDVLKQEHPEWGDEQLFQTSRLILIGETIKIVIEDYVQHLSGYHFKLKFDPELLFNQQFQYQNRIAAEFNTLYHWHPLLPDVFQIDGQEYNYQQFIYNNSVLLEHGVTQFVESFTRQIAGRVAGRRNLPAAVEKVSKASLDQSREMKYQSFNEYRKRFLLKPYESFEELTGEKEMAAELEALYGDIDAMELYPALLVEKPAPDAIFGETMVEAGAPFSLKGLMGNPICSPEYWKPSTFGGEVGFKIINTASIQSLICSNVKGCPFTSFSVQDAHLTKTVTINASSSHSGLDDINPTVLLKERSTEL
Briefly: biochemical. The conditions noted are these: for COX-2 S.I. (COX-1 IC50/ COX-2 IC50): in-vitro COX-2 selectivity index; for pIC50: ovine COX-1/COX-2 assay kit, mean of two determinations, deviation < 10% of the mean. The procedure:
as §1, §2

pIC50: −log10 of the molar value.

As to `CC1(C)CC(=O)C2=C(C1)NC(c1ccc(S(C)(=O)=O)cc1)=CC2c1ccccc1` (stereo not shown) [Compound 9a], the pIC50 (commonly −log10 of the IC50, conventionally taken in molar units) is 5.59 against COX-1 and 6.10 at COX-2. The “COX-2 S.I. (COX-1 IC50/ COX-2 IC50)” value on COX-2 stood at 3.3.

The molecule `Cc1ccc(C2C=C(c3ccc(S(C)(=O)=O)cc3)NC3=C2C(=O)CC(C)(C)C3)cc1` (stereo not shown) [Compound 9b] had a pIC50 on COX-1 of 5.60. Moreover, on COX-2, the “COX-2 S.I. (COX-1 IC50/ COX-2 IC50)” value amounted to 5.6 and the pIC50 was 6.35.

As for `COc1ccc(C2C=C(c3ccc(S(C)(=O)=O)cc3)NC3=C2C(=O)CC(C)(C)C3)cc1` (stereo not shown) [Compound 9c, 7,8-Dihydro-7,7-dimethyl-4-(4-methoxyphenyl)-2-(4-(methylsulfonyl)phenyl) quinolin-5(1H, 4H, 6H)-one], the melting point (as a rule, the temperature of the solid-liquid transition) lay within 250 to 253 °C. Besides, the pIC50 on COX-1 was 4.78. The pIC50 on COX-2 was 6.77.

Regarding `CC1(C)CC(=O)C2=C(C1)NC(c1ccc(S(C)(=O)=O)cc1)=CC2c1ccc(F)cc1` (stereo not shown) [Compound 9d], the melting point lay within 130 to 133 °C. This molecule had a pIC50 at COX-1 of 4.89. In addition, on COX-2, the “COX-2 S.I. (COX-1 IC50/ COX-2 IC50)” value came out at 43 and the pIC50 was 6.52.

As for `CC1(C)CC(=O)C2=C(C1)NC(c1ccc(S(C)(=O)=O)cc1)=CC2c1ccc(Cl)cc1` (stereo not shown) [Compound 9e], the melting point was 232 to 236 °C. On COX-1, this molecule showed a pIC50 of 4.73. In addition, at COX-2, the “COX-2 S.I. (COX-1 IC50/ COX-2 IC50)” value is recorded as 3.8 and the pIC50 is 5.31.

Turning to `CC1(C)CC(=O)C2=C(C1)NC(c1ccc(S(C)(=O)=O)cc1)=CC2c1ccc(Br)cc1` (stereo not shown) [Compound 9f], the melting point is 237 to 240 °C. The same molecule showed a pIC50 on COX-1 of 4.68. Further, on COX-2, the “COX-2 S.I. (COX-1 IC50/ COX-2 IC50)” value is 2.1 and the pIC50 was 5.00.

`CC1(C)CC(=O)C2=C(C1)NC(c1ccc(S(C)(=O)=O)cc1)=CC2c1ccc([N+](=O)[O-])cc1` (stereo not shown) [Compound 9g]: the figures for the pIC50 at COX-1 and against COX-2 were 4.75 and 4.78, respectively. Also, the “COX-2 S.I. (COX-1 IC50/ COX-2 IC50)” value on COX-2 turned out to be 1.1.

In turn, `CC1(C)CC(=O)C2=C(C1)NC(c1ccccc1)=CC2c1ccc(S(C)(=O)=O)cc1` (stereo not shown) [Compound 9h] yielded a melting point of 205 to 208 °C. Besides, the pIC50 against COX-1 is 5.44. Also, on COX-2, the “COX-2 S.I. (COX-1 IC50/ COX-2 IC50)” value came out at 3.1 and the pIC50 was 5.94.

`Cc1ccc(C2=CC(c3ccc(S(C)(=O)=O)cc3)C3=C(CC(C)(C)CC3=O)N2)cc1` (stereo not shown) [Compound 9i, 7,8-Dihydro-7,7-dimethyl-2-(4-methylphenyl)-4-(4-(methylsulfonyl)phenyl) quinolin-5(1H, 4H, 6H)-one] registered a melting point of 223 to 225 °C. Besides, the pIC50 against COX-1 was 5.54. Further, on COX-2, the “COX-2 S.I. (COX-1 IC50/ COX-2 IC50)” value turned out to be 2.2 and the pIC50 was 5.89.

In turn, `COc1ccc(C2=CC(c3ccc(S(C)(=O)=O)cc3)C3=C(CC(C)(C)CC3=O)N2)cc1` (stereo not shown) [Compound 9j, 7,8-Dihydro-2-(4-methoxyphenyl)-7,7-dimethyl-4-(4-(methylsulfonyl)phenyl) quinolin-5(1H, 4H, 6H)-one] registered a melting point of 226 to 230 °C. The same molecule gave a pIC50 against COX-1 of 4.73. Also, on COX-2, the “COX-2 S.I. (COX-1 IC50/ COX-2 IC50)” value was determined as 62.3 and the pIC50 was 6.52.

For the molecule `CC1(C)CC(=O)C2=C(C1)NC(c1ccc(F)cc1)=CC2c1ccc(S(C)(=O)=O)cc1` (stereo not shown) [Compound 9k, 2-(4-Fluorophenyl)-7,8-dihydro-7,7-dimethyl-4-(4-(methylsulfonyl)phenyl) quinolin-5 (1H, 4H, 6H)-one], the melting point was 226 to 230 °C. Moreover, the pIC50 against COX-1 is 4.85. Besides, at COX-2, the “COX-2 S.I. (COX-1 IC50/ COX-2 IC50)” value was found to be 14.2 and the pIC50 was 6.00.

For `CC1(C)CC(=O)C2=C(C1)NC(c1ccc(Cl)cc1)=CC2c1ccc(S(C)(=O)=O)cc1` (stereo not shown) [Compound 9l, 2-(4-Cholorophenyl)-7,8-dihydro-7,7-dimethyl-4-(4-(methylsulfonyl)phenyl) quinolin-5(1H, 4H, 6H)-one], the melting point was in the range of 226 to 230 °C. The molecule further gave a pIC50 on COX-1 of 4.67. At COX-2, the “COX-2 S.I. (COX-1 IC50/ COX-2 IC50)” value is 3.1 and the pIC50 is 5.16.

The molecule `CC1(C)CC(=O)C2=C(C1)NC(c1ccc(Br)cc1)=CC2c1ccc(S(C)(=O)=O)cc1` (stereo not shown) [Compound 9m, 2-(4-Bromophenyl)-7,8-dihydro-7,7-dimethyl-4-(4-(methylsulfonyl)phenyl) quinolin-5 (1H, 4H, 6H)-one] showed a melting point of 226 to 230 °C. Besides, the pIC50 against COX-1 was 4.75. Besides, on COX-2, the “COX-2 S.I. (COX-1 IC50/ COX-2 IC50)” value is on record as 1.3 and the pIC50 is 4.88.

Molecule `CC1(C)CC(=O)C2=C(C1)NC(c1ccc([N+](=O)[O-])cc1)=CC2c1ccc(S(C)(=O)=O)cc1` (stereo not shown) [Compound 9n, 7,8-Dihydro-7,7-dimethyl-4-(4-(methylsulfonyl)phenyl)-2-(4-nitrophenyl) quinolin-5 (1H, 4H, 6H)-one] had a melting point of 226 to 230 °C. This molecule gave a pIC50 at COX-1 of 4.73. Also, at COX-2, the “COX-2 S.I. (COX-1 IC50/ COX-2 IC50)” value is given as 0.7 and the pIC50 is 4.60.
